These results are taken from PubChem BioAssay AID179 (DTP/NCI, 2004).

This test has as its system CEM cells HIV-1 protection, formazan growth assay. Briefly: NCI AIDS Antiviral Assay. Particulars: for IC50: measured here: growth of uninfected CEM cells. The gist of the method:
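Protection of CEM cells against HIV-1 measured as cell growth via soluble formazan read-out, with five concentrations tested on both infected and uninfected cells; failure to protect may reflect toxicity.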

SMILES strings stand for the structures. Active and inactive are the calls of the source.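 Rule for the calls: active = compounds giving half or more protection of infected cells from virus-caused growth loss, again on retest; inactive = the rest.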 Where a SMILES comes first, the peptide text is derived from it.

In general, EC50 refers to the concentration at which the effect is half-maximal. By IC50 is commonly meant the concentration needed to halve the response being measured. A high value points to a need for much substance.

As for `c1ccc(N=C2C(=Nc3ccccc3)N(C3CCCCC3)C(=NC3CCCCC3)N2c2ccccc2)cc1`, the EC50 was greater than 200 µM and the half-inhibitory concentration (IC50) is greater than 200 µM. With `O=S(=O)(O)C1=C2Sc3ccccc3N=C2c2ccccc2C1`, the EC50 was greater than 141 µM and the 50% inhibitory concentration (IC50) was found to be 7.94 µM. For `CC(Nc1cc(=O)n(C)c(=O)[nH]1)c1ccccc1` (centres undefined), in that order: 55 µM and greater than 200 µM. With `O=CN(c1ccccc1)c1c([N+](=O)[O-])cc([N+](=O)[O-])c2c1=NCN=2`, the EC50 is greater than 79.4 µM and the concentration for half-maximal inhibition (IC50) is greater than 79.4 µM.

Take `CCCCCCCN1C(=O)C(O)(c2ccc(C3(O)C(=O)N(CCCCCCC)c4ccccc43)s2)c2ccccc21` (centres undefined): the EC50 is greater than 200 µM and the half-inhibitory concentration (IC50) came to 11.2 µM. Regarding `CC1OC(OC2C(Oc3cc(O)c4c(c3)O[C@H](c3ccc(O)cc3)CC4=O)OC(CO)C(O)C2O)C(O)C(O)C1O` (some centres undefined), the EC50 was greater than 200 µM and the IC50 was greater than 200 µM. `COc1cc(C(=O)O)c(C(=O)c2ccc([N+](=O)[O-])cc2)cc1OC`: the EC50 was greater than 200 µM and the IC50 is greater than 200 µM. With `O=C1c2ccccc2CC12Cc1cc3c(cc1C2=O)CCC3` (centres undefined), the EC50 is greater than 200 µM and the IC50 is greater than 200 µM. On to `CC(=S)NC=C(C(N)=O)C(N)=O`, for which the EC50 was greater than 200 µM and the IC50 is greater than 200 µM.

Regarding `O=S1(=O)[C@H](c2ccccc2)c2c(-c3ccccc3)sc(-c3ccccc3)c2[C@@H]1c1ccccc1`, the result was inactive. On to `COc1cccc2sc(-n3c(C)nc4ccccc4c3=O)nc12`, for which the EC50 is greater than 200 µM and the half-maximal inhibitory concentration (IC50) was greater than 200 µM. Consider `[O-]c1csc2n(-c3ccccc3)c3ccccc3[n+]12`, for which the EC50 was greater than 200 µM and the half-inhibitory concentration (IC50) was greater than 200 µM. Take `Cc1ccc(NC(=S)NNC(=O)c2cc(-c3ccccc3)nc3ccccc23)cc1`: the EC50 was greater than 200 µM and the IC50 is 12.9 µM.

Take `CC1=CC(O)(c2ccc(-c3ccccc3Cl)cc2)OC1=O` (centres undefined): the outcome was inactive. In the case of `COc1ccc(Nc2cc[nH]c(=O)c2NC(C)=O)cc1`, the EC50 was greater than 479 µM and the concentration for half-maximal inhibition (IC50) was greater than 479 µM. As for `CC(CC[C@@H](O)C(C)(C)O)C1[C@@H](O)CC2(C)C3CC(O)C4C(C)(C)[C@@H](OC5OC(CO)C(O)C(O)C5O)CC[C@@]45C[C@@]35CC[C@]12C` (some centres undefined), the EC50 is greater than 200 µM and the IC50 was greater than 200 µM.

On to `NC(=O)C(=CN1C(=O)/C(=C/c2ccc([N+](=O)[O-])cc2)SC1=S)C(N)=O`, for which the EC50 is greater than 200 µM and the 50% inhibitory concentration (IC50) turned out to be 30.2 µM. In the case of `c1cc2c3c(c1)[I+]c1cccc(c1-3)[I+]2`, the EC50 was greater than 100 µM and the 50% inhibitory concentration (IC50) is 0.12 µM. As to `CC1(C)C2CCC1(CS(=O)(=O)O)C(=O)C2` (centres undefined), the EC50 was greater than 200 µM and the IC50 is greater than 200 µM. Consider `Oc1ccccc1-c1n[nH]c(=S)n1/N=C/c1ccc(-c2ccc(Br)cc2)o1`, for which the EC50 was greater than 42.7 µM and the concentration for half-maximal inhibition (IC50) is greater than 42.7 µM. In the case of `CC(=O)OCC1OC(SC2=N/C(=C\c3ccc(Br)s3)C(=O)N2CN2CCOCC2)C(OC(C)=O)C(OC(C)=O)C1OC(C)=O` (centres undefined), the EC50 was greater than 200 µM and the half-maximal inhibitory concentration (IC50) is 9.33 µM. For `COc1ccc(/C=N/N=C(\N)NO)c(O)c1`, the EC50 was greater than 200 µM and the IC50 is 10.5 µM.

As to `Cc1ccc(S(=O)(=O)NCNS(=O)(=O)c2ccc(C)cc2)cc1`, the EC50 is greater than 200 µM and the IC50 was greater than 200 µM.

With `COc1ccc(-c2cc(-c3cc(C)cc(Cl)c3O)nc3[nH]c(=S)[nH]c(=S)c23)cc1`, the EC50 is greater than 200 µM and the half-inhibitory concentration (IC50) was 4.17 µM. For `Cc1[nH]c2ccccc2c1C1Cc2ccccc2N1C(=O)/C=C/C(=O)O` (centres undefined), in that order: greater than 724 µM and 132 µM. With `CC(C)C1=CC2=CC(=O)C3C(C)(C)CCCC3(C)C2=C(O)C1=O` (centres undefined), the EC50 is greater than 20 µM and the IC50 is 4.07 µM. Take `O=C(/C=C/c1ccc(Cl)cc1)c1ccc(Cl)s1`: the EC50 was greater than 200 µM.

With `Cc1ccc(Nc2sc(C)cc2C#N)c([N+](=O)[O-])c1`, the EC50 is greater than 200 µM and the IC50 came out at 178 µM. As for `S=C(NCCNC(=S)SSC(=S)NNc1ccccc1)SSC(=S)NNc1ccccc1`, the EC50 was greater than 200 µM and the half-maximal inhibitory concentration (IC50) is 17.4 µM. On to `Cn1nc(/C=C/c2ccccc2)nc2c(=O)n(C)c(=O)nc1-2`, for which the EC50 is greater than 200 µM and the IC50 turned out to be 0.631 µM. For `CCOC(=O)c1nc(C)c(-c2ccccc2)c(-c2ccccc2)c1C`, in that order: greater than 11.5 µM and greater than 11.5 µM. `OCC1(CO)CC2C3C=CC(C3)C2C1` (centres undefined): the EC50 was greater than 229 µM and the half-maximal inhibitory concentration (IC50) was greater than 229 µM.

With `C/C(=N\Oc1cc(Cl)ncn1)c1ccccn1`, the EC50 was greater than 200 µM and the IC50 came out at 30.2 µM.

Consider `CCN(Cc1ccccc1)c1ccc(/C=C/c2ccnc3ccccc23)cc1`, for which the EC50 is greater than 10.2 µM and the IC50 worked out at 8.32 µM. As to `Brc1ccc(C2CC(c3cccc4ccccc34)=Nc3ccccc3S2)cc1` (centres undefined), the EC50 is greater than 11.7 µM and the IC50 is greater than 11.7 µM. Regarding `NC(N)=N/N=C/c1c(-c2ccc(Cl)cc2)nc2sc(Cl)cn12`, the EC50 was greater than 20 µM and the IC50 worked out at 1.07 µM.

Regarding `C=CCc1c(O)c2ccccc2[nH]c1=O`, the EC50 was greater than 200 µM and the IC50 is greater than 200 µM. With `O=C1CC2O[C@H](c3ccccc3)OC2CO1` (some centres undefined), the EC50 is greater than 200 µM and the IC50 came out at 93.3 µM. For `Cc1ccc(/C=N/Nc2cnccn2)s1` the same measures were greater than 200 µM and greater than 200 µM.

Consider `Nc1ccc(C(=O)NN2C(=O)C(Cl)C2c2cccc(O)c2)cc1` (centres undefined), for which the EC50 was greater than 200 µM and the IC50 is 9.55 µM. Consider `COC(OC)C(=O)[C@H]1[C@H](C(=O)OCC2OC(n3cc(C)c(=O)[nH]c3=O)CC2N=[N+]=[N-])C[C@H]2[C@@H]3CCC4=CC(=O)C=C[C@]4(C)[C@H]3[C@@H](O)C[C@@]21C` (some centres undefined), for which the EC50 is 0.0331 µM and the IC50 was 13.2 µM. For `COc1cccc(N2C(=O)/C(=C/c3ccc(N(CCC#N)CCC#N)cc3)N=C2c2cc([N+](=O)[O-])ccc2Cl)c1`, the EC50 was greater than 9.33 µM and the IC50 was greater than 9.33 µM. In the case of `COC(=O)/C=C/C(=O)/C=C/COC(=O)c1ccccc1`, the EC50 was greater than 95.5 µM and the half-maximal inhibitory concentration (IC50) came to 61.7 µM.

On to `NNc1cn[nH]c(=O)c1Cl`, for which the EC50 was greater than 200 µM and the half-maximal inhibitory concentration (IC50) is greater than 200 µM. In the case of `COc1ccc(C(O)CC(O)(C(F)(F)F)C(F)(F)F)cc1` (centres undefined), the EC50 is greater than 200 µM and the IC50 is greater than 100 µM. For the compound `Cc1c(C(=O)O)c2cc3ccccc3cc2c(=O)n1C`, the EC50 was greater than 200 µM and the half-inhibitory concentration (IC50) is greater than 200 µM. `CCOC(=O)c1sc2nc(SC)nc3c2c1NCN3C`: the EC50 is greater than 200 µM and the IC50 is greater than 200 µM. For the compound `NNC(=O)C1CCC(=O)N1S(=O)(=O)c1ccccc1` (centres undefined), the result was inactive. On to `CCOC(=O)c1cc(OC(C)=O)c2ccccc2c1`, for which the EC50 is greater than 100 µM and the half-maximal inhibitory concentration (IC50) was determined as 95.5 µM. Turning to `Nc1ccc(C(=O)N/C(=C\c2cccc([N+](=O)[O-])c2)c2nc3ccc(Cl)cc3[nH]2)cc1`, the outcome was inactive.

For the compound `CCOP(=O)(OCC)O/N=C/c1cccc(C(F)(F)F)c1`, the EC50 was greater than 204 µM and the IC50 was greater than 204 µM. Turning to `COC(=O)C1C(=O)N(C)C(=O)N2CCCC12` (centres undefined), the EC50 was greater than 200 µM and the IC50 is greater than 200 µM. As to `Cc1ccc(S(=O)(=O)OI(O)CC(F)(F)F)cc1`, the EC50 is greater than 200 µM and the IC50 is greater than 200 µM. Turning to `Cc1sc2ccccc2c2nc3ccccc3c1-2`, the outcome was inactive. Turning to `Cc1ccc(C)c(C(=O)CC2OC(O)C(Cl)C2Cl)c1` (centres undefined), the EC50 was greater than 117 µM and the concentration for half-maximal inhibition (IC50) came out at 64.6 µM. Take `COC1/C=C/OC2(C)Oc3c(C)c(O)c4c(O)c(c(/C=N/OCCN5CCCCC5)c(O)c4c3C2=O)NC(=O)C(C)=C/C=C/C(C)C(O)C(C)C(O)C(C)C(OC(C)=O)C1C` (centres undefined): the EC50 was greater than 100 µM and the 50% inhibitory concentration (IC50) was 28.2 µM.

On to `CCC(C)C(NC(=O)C(CCCN=C(N)N)NC(=O)C(CC(N)=O)NC(=O)C(Cc1cnc[nH]1)NC(=O)C(N)CC(C)C)C(=O)NC(C(=O)NC(CC(C)C)C(=O)NC(C(=O)NC(Cc1cnc[nH]1)C(=O)O)C(C)O)C(C)CC` (centres undefined) (H-LHNRIILTH-OH; configuration not given here), for which the EC50 was greater than 44.7 µM and the IC50 was greater than 44.7 µM. Turning to `O=c1[nH]c2nccn2c(Cl)c1Br`, the EC50 is greater than 200 µM and the IC50 turned out to be 33.9 µM. For `CCN(CC)CC(=O)Nc1ccc2c(c1)C(=O)c1ccc(NC(=O)CN(CC)CC)cc1C2=O`, in that order: greater than 100 µM and 2.09 µM. For `N#Cc1nc(-c2ccco2)oc1N`, the EC50 was greater than 200 µM and the IC50 was greater than 200 µM. Regarding `COC(C)(C)[C@@H]1CCCN1C1=C(C)C(=O)OC1`, the EC50 is greater than 200 µM and the IC50 is greater than 200 µM. For the compound `CC(=O)O[C@]12CCC[C@H]1C1(O)C(O)CCC[C@H]12` (some centres undefined), the EC50 is greater than 200 µM and the IC50 was greater than 200 µM. Take `COc1cccc(N2CCc3c(C)c(C#N)c4nc5ccccc5n4c32)c1`: the EC50 was greater than 100 µM and the IC50 was greater than 100 µM. Turning to `c1scc2c1COCCOCCOCCOCCOC2`, the EC50 is greater than 832 µM and the IC50 is greater than 832 µM. As to `COc1cccc(/C=C2\CCc3ccccc3C2=O)c1`, the EC50 is greater than 14.5 µM and the concentration for half-maximal inhibition (IC50) is greater than 14.5 µM. For `CCCC1(CCCNC(=O)c2ccccc2)OCc2ccccc2CO1`, the EC50 was greater than 513 µM and the IC50 is greater than 513 µM.

Regarding `CCOC(=O)c1ccc(-n2[nH]nc(C(N)=O)c2=O)cc1`, the EC50 is greater than 200 µM and the IC50 is greater than 200 µM. In the case of `CC(NC1=NCCO1)c1ccccc1Cl` (centres undefined), the outcome was inactive.

In the case of `CCOC(=O)c1c(C)nc2c(c1-c1cn(-c3ccccc3)nc1-c1ccccc1)C(=O)c1ccccc1-2`, the result was inactive. As for `CC1CC(=O)Nc2cc(Cl)ccc2N1C(=O)C1CC1` (centres undefined), the EC50 was greater than 200 µM and the half-maximal inhibitory concentration (IC50) is greater than 200 µM. For the compound `O=S(=O)(Nc1nc2ccccc2nc1Nc1ccc2ccccc2c1)c1ccccc1`, the EC50 was greater than 200 µM and the 50% inhibitory concentration (IC50) amounted to 10.5 µM.
